Assay results taken from ChEMBL document CHEMBL6096628, “Discovery of a Highly Potent and Selective BRD9 PROTAC Degrader Based on E3 Binder Investigation for the Treatment of Hematological Tumors” (J Med Chem, 2024).
Activity calls are given as the source filed them. The calls are words filed in the database; no cut-off is given here.

Legend:
[1] = target: T1, Protein cereblon/Bromodomain-containing protein 9 (Homo sapiens, UniProt Q9H8M2+Q96SW2); experiment: PROTAC activity at CRBN/BRD9 in human MV4-11 cells assessed as induction of BRD9 degradation at 1 nM by Western blot analysis relative to control; assay type: cell-based
Target sequence in this assay (Q96SW2 whole entry, looked up): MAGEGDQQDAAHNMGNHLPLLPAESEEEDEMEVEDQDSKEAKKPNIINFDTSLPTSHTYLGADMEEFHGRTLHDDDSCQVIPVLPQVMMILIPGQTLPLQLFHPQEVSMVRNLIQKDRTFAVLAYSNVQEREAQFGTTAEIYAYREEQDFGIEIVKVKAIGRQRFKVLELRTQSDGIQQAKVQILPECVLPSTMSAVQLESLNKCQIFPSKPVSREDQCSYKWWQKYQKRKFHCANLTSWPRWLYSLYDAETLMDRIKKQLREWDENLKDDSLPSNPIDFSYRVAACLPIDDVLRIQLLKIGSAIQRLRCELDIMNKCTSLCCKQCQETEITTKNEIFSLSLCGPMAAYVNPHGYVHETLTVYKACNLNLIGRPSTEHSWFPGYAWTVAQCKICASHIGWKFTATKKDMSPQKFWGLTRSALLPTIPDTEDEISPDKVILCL
Target sequence in this assay (Q9H8M2 whole entry, looked up): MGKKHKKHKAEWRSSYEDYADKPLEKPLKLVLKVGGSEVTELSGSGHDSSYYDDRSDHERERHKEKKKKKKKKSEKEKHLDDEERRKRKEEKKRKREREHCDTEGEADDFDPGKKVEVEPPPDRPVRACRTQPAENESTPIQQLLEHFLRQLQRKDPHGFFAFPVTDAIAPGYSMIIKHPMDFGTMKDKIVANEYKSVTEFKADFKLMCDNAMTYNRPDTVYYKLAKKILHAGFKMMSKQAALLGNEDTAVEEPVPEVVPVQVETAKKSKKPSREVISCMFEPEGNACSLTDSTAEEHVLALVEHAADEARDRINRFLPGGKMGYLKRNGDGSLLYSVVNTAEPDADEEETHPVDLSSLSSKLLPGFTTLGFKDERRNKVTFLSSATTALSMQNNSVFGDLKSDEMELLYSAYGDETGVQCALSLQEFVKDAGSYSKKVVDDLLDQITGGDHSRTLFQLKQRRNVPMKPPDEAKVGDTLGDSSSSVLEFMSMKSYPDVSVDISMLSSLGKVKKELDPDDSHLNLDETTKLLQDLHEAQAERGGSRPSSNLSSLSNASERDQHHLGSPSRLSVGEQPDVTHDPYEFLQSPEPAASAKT

MOLM-13 = experiment: Antiproliferative activity against human MOLM-13 cells assessed as inhibition of cell growth incubated for 7 days by MTS reagent based assay; assay type: functional; conditions: MOLM-13, 168 h
Kasumi 1 = experiment: Antiproliferative activity against human Kasumi 1 cells assessed as inhibition of cell growth incubated for 7 days by MTS reagent based assay; assay type: functional; conditions: Kasumi 1, 168 h
SU-DHL-2 = experiment: Antiproliferative activity against human SU-DHL-2 cells assessed as inhibition of cell growth incubated for 7 days by MTS reagent based assay; assay type: functional; conditions: SU-DHL-2, 168 h
OCI-Ly10 = experiment: Antiproliferative activity against human OCI-Ly10 cells assessed as inhibition of cell growth incubated for 7 days by MTS reagent based assay; assay type: functional; conditions: OCI-Ly10, 168 h
[2] = target: T1, Protein cereblon/Bromodomain-containing protein 9; experiment: PROTAC activity at CRBN/BRD9 in human MV4-11 cells assessed as induction of BRD9 degradation at 10 nM by Western blot analysis relative to control; assay type: cell-based
Target sequence in this assay (Q96SW2 whole entry, looked up): as the sequence (Q96SW2 whole entry, looked up) above
Target sequence in this assay (Q9H8M2 whole entry, looked up): as the sequence (Q9H8M2 whole entry, looked up) above

[3] = target: T1, Protein cereblon/Bromodomain-containing protein 9; experiment: PROTAC activity at CRBN/BRD9 in human MV4-11 cells assessed as induction of BRD9 degradation at 100 nM by Western blot analysis relative to control; assay type: cell-based
Target sequence in this assay (Q96SW2 whole entry, looked up): as the sequence (Q96SW2 whole entry, looked up) above
Target sequence in this assay (Q9H8M2 whole entry, looked up): as the sequence (Q9H8M2 whole entry, looked up) above

U-937 = experiment: Antiproliferative activity against human U-937 cells assessed as inhibition of cell growth incubated for 7 days by MTS reagent based assay; assay type: functional; conditions: time 7.0 day
MV4-11 [4] = experiment: Antiproliferative activity against CRBN knockout human MV4-11 cells assessed as inhibition of cell growth incubated for 7 days by MTS reagent based assay; assay type: functional; conditions: MV4-11, 168 h
SU-DHL-6 = experiment: Antiproliferative activity against human SU-DHL-6 cells assessed as inhibition of cell growth incubated for 7 days by MTS reagent based assay; assay type: functional; conditions: SU-DHL-6, 168 h
MV4-11 [5] = experiment: Antiproliferative activity against human MV4-11 cells assessed as inhibition of cell growth incubated for 7 days by MTS reagent based assay; assay type: functional; conditions: MV4-11, 168 h
[6] = target: T1, Protein cereblon/Bromodomain-containing protein 9; experiment: PROTAC activity at CRBN/BRD9 (unknown origin); assay type: protein assay
Target sequence in this assay (Q9H8M2 whole entry): as the sequence (Q9H8M2 whole entry, looked up) above
Target sequence in this assay (Q96SW2 whole entry): as the sequence (Q96SW2 whole entry, looked up) above

Row | Activity [1] [%] | IC50 (MOLM-13) [nM] | IC50 (SU-DHL-2) [nM] | IC50 (OCI-Ly10) [nM] | Activity [2] [%] | Activity [3] [%] | IC50 (MV4-11 [4]) [nM] | IC50 (SU-DHL-6) [nM] | IC50 (MV4-11 [5]) [nM] | DC50 [6] [nM] | Structure (SMILES) | IC50 (Kasumi 1) [nM] | Activity (U-937)
1 | 6.9 | 59.9 | 323 | 1240 | 74.9 | 93.9 | > 5000 | 3250 | 35.3 | 3 | COc1cc(-c2cn(C)c(=O)c(C)c2C)cc(OC)c1CN1CC[C@H](N2CCN(c3ccc(N[C@H]4CCC(=O)NC4=O)cc3F)CC2)C(F)(F)C1 (racemic) [SENDEGOBRESIB] | 14.6 | Active; Weak Inhibitory Effect Observed
2 | 13 | – | – | – | 89 | 98 | > 5000 | – | 46.9 | – | COc1cc(-c2cn(C)c(=O)c3ccccc23)cc(OC)c1CN1CCC(CN2CCN(c3ccc(OC4CCC(=O)NC4=O)cc3)CC2)CC1 (centres undefined) | – | –
3 | 29.5 | – | – | – | 95.5 | 92 | > 5000 | – | 5.31 | – | COc1cc(-c2cn(C)c(=O)c3ccccc23)cc(OC)c1CN1CCC(CN2CCN(c3ccc(C(=O)NC4CCC(=O)NC4=O)nc3)CC2)CC1 (centres undefined) | – | –
4 | 12 | – | – | – | 8 | 25 | > 5000 | – | 691 | – | COc1cc(-c2cn(C)c(=O)c3ccccc23)cc(OC)c1CN1CCN(c2ccc(N3CCC(=O)NC3=O)cc2)CC1 | – | –
5 | 41.7 | – | – | – | 46.7 | 59.3 | > 5000 | – | 1670 | – | COc1cc(-c2cn(C)c(=O)c3ccccc23)cc(OC)c1CN1CCN(c2ccc(NC3CCC(=O)NC3=O)cn2)CC1 (centres undefined) | – | –
6 | 34 | – | – | – | 74.7 | 86 | > 5000 | – | 17.7 | – | COc1cc(-c2cn(C)c(=O)c3ccccc23)cc(OC)c1CN1CCN(c2ccc(NC3CCC(=O)NC3=O)cc2F)CC1 (centres undefined) | – | –
7 | 26.7 | – | – | – | 32.3 | 35.7 | > 5000 | – | 3150 | – | COc1cc(-c2cn(C)c(=O)c3ccccc23)cc(OC)c1CN1CCN(c2ccc(C(=O)NC3CCC(=O)NC3=O)cc2)CC1 (centres undefined) | – | –
8 | 56 | – | – | – | 85.5 | 86.5 | > 5000 | – | 11.9 | – | COc1cc(-c2cn(C)c(=O)c3ccccc23)cc(OC)c1CN1CCC(CN2CCN(c3ccc(NC4CCC(=O)NC4=O)cn3)CC2)CC1 (centres undefined) | – | –
9 | 18.3 | – | – | – | 21.3 | 65 | > 5000 | – | 4510 | – | COc1cc(-c2cn(C)c(=O)c3ccccc23)cc(OC)c1CN1CCN(c2ccc(C(=O)NC3CCC(=O)NC3=O)nc2)CC1 (centres undefined) | – | –
10 | 33.3 | – | – | – | 39.3 | 50 | > 5000 | – | 2490 | – | COc1cc(-c2cn(C)c(=O)c3ccccc23)cc(OC)c1CN1CCN(c2ccc(C(=O)NC3CCC(=O)NC3=O)cn2)CC1 (centres undefined) | – | –
11 | 45.5 | – | – | – | 66 | 80.5 | > 5000 | – | 424 | – | COc1cc(-c2cn(C)c(=O)c3ccccc23)cc(OC)c1CN1CCN(c2ccc(NC3CCC(=O)NC3=O)cc2)CC1 (centres undefined) | – | –
12 | 65 | – | – | – | 87.3 | 83.7 | > 5000 | – | 128 | – | COc1cc(-c2cn(C)c(=O)c3ccccc23)cc(OC)c1CN1CCN(c2ccc(C3CCC(=O)NC3=O)cc2)CC1 (centres undefined) | – | –
13 | 32 | – | – | – | 60.5 | 80.5 | > 5000 | – | 3610 | – | COc1cc(-c2cn(C)c(=O)c3ccccc23)cc(OC)c1CN1CCN(c2ccc(OC3CCC(=O)NC3=O)cc2)CC1 (centres undefined) | – | –
14 | 79.5 | – | – | – | 80.5 | 50.5 | > 5000 | – | 2.44 | – | COc1cc(-c2cn(C)c(=O)c3ccccc23)cc(OC)c1CN1CCC(c2ccc3c4c(cccc24)C(=O)N3C2CCC(=O)NC2=O)CC1 (centres undefined) | – | –
15 | 69.5 | – | – | – | 96.5 | 97.5 | > 5000 | – | 5.61 | – | COc1cc(-c2cn(C)c(=O)c3ccccc23)cc(OC)c1CN1CCC(CN2CCN(c3ccc(NC4CCC(=O)NC4=O)cc3)CC2)CC1 (centres undefined) | – | –
16 | – | 1220 | 1590 | 2710 | – | – | – | 1210 | 385 | – | CCn1cc(-c2cccc(C(F)(F)F)c2)c2sc(C(=N)NC3CCS(=O)(=O)CC3)cc2c1=O | 453 | Active; Weak Inhibitory Effect Observed
